According to paper PMC6199744, “Development of Chemical Proteomics for the Folateome and Analysis of the Kinetoplastid Folateome” (ACS Infectious Diseases, 2018):
Like-named read-outs stand apart in the source and are kept apart here.

How the values were obtained:
Assay type in all cases: binding
[1] = molecular target: T1, HeLa cell extract proteins (Homo sapiens, UniProt P30049)
T1 construct: endogenous in cells; host or cells: HeLa cell extract
T1 sequence (P30049 23-168): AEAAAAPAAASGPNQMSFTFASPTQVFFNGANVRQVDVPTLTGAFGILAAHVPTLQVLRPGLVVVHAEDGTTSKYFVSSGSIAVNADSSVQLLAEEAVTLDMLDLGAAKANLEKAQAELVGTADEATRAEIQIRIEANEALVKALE

[2] = molecular target: T2, HeLa cell extract proteins (Homo sapiens, UniProt P51570)
T2 construct: endogenous in cells; host or cells: HeLa cell extract

[3] = molecular target: T3, HeLa cell extract proteins (Homo sapiens, UniProt Q9BPW8)
T3 construct: endogenous in cells; host or cells: HeLa cell extract
T3 sequence (Q9BPW8 36-284): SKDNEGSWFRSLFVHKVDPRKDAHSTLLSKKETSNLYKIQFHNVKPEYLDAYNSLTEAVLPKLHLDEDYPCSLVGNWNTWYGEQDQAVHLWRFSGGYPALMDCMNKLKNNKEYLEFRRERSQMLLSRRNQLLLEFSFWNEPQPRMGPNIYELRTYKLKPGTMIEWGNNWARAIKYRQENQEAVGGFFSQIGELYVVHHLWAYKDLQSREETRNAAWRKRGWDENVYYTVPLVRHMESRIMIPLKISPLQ

[4] = molecular target: T4, HeLa cell extract proteins (Homo sapiens, UniProt Q9UPU5)
T4 construct: endogenous in cells; host or cells: HeLa cell extract

[5] = molecular target: T5, HeLa cell extract proteins (Homo sapiens, UniProt P18074)
T5 construct: endogenous in cells; host or cells: HeLa cell extract
T5 sequence (P18074 1-760): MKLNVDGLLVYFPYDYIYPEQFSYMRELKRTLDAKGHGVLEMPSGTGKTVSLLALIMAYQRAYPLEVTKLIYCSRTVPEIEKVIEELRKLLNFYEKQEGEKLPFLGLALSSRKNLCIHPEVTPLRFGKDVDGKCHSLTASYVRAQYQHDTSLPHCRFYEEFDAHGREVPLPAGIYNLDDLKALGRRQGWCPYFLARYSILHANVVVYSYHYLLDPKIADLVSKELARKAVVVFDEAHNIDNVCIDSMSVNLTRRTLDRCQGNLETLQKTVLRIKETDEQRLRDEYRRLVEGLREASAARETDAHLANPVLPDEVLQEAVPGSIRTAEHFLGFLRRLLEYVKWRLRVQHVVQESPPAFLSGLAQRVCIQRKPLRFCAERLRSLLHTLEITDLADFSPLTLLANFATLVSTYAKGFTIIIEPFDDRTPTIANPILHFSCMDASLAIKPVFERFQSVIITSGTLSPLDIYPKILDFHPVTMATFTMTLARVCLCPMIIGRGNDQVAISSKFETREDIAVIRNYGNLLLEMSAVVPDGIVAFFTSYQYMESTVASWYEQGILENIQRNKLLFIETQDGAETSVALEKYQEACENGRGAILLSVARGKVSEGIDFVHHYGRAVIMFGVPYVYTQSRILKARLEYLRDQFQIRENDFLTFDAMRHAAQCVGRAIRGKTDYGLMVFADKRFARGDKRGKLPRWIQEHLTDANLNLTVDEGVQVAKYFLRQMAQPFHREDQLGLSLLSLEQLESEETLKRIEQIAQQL

[6] = molecular target: T6, HeLa cell extract proteins (Homo sapiens, UniProt P26368); conditions: protein U2AF2; HeLa
T6 construct: endogenous in cells; host or cells: HeLa cell extract

[7] = molecular target: T7, HeLa cell extract proteins (Homo sapiens, UniProt Q15233); conditions: protein NONO; HeLa
T7 construct: endogenous in cells; host or cells: HeLa cell extract
T7 sequence (Q15233 1-471): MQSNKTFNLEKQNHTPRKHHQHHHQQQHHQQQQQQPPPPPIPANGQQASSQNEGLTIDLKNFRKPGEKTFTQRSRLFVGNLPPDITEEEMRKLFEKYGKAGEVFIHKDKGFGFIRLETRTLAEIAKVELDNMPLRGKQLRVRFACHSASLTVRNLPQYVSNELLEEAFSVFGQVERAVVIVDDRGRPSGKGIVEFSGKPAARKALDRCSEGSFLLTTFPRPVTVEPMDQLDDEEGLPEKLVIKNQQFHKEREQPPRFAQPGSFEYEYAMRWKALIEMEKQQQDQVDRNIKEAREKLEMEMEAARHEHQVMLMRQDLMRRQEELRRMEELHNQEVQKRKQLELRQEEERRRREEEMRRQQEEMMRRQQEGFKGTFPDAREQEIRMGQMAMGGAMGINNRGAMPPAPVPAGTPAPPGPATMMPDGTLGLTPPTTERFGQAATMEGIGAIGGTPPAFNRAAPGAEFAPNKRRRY

[8] = molecular target: T8, HeLa cell extract proteins (Homo sapiens, UniProt Q9UBB4); conditions: protein Ataxin-10; HeLa
T8 construct: endogenous in cells; host or cells: HeLa cell extract
T8 sequence (Q9UBB4 1-475): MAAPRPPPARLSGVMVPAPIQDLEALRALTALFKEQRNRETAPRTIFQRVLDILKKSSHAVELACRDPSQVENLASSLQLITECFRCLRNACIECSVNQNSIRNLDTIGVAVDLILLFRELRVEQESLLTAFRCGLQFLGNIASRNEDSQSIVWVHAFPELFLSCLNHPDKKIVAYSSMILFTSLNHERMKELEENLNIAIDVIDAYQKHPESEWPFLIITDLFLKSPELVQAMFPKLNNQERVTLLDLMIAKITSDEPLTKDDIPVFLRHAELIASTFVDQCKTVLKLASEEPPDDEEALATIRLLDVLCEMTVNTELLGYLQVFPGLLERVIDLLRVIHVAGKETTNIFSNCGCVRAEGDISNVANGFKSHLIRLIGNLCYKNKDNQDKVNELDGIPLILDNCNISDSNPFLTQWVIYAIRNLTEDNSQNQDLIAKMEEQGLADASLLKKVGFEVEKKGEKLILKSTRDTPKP

[9] = molecular target: T9, HeLa cell extract proteins (Homo sapiens, UniProt O75600); conditions: protein GCAT; HeLa
T9 construct: endogenous in cells; host or cells: HeLa cell extract
T9 sequence (O75600 22-419): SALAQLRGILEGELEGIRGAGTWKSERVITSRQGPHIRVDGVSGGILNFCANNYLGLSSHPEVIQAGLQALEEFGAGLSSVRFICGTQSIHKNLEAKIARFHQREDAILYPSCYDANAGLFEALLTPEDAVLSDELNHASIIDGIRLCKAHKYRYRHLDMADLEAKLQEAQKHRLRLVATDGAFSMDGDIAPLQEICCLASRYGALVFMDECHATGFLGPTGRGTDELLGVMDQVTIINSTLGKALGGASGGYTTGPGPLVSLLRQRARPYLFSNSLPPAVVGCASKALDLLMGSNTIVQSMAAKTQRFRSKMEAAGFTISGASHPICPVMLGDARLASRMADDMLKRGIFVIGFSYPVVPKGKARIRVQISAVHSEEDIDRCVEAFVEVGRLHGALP

[10] = HeLa, protein GALK1 (CDNA FLJ56840, HIGHLY SIMILAR TO GALACTOKINASE)

T6 sequence (P26368 whole entry): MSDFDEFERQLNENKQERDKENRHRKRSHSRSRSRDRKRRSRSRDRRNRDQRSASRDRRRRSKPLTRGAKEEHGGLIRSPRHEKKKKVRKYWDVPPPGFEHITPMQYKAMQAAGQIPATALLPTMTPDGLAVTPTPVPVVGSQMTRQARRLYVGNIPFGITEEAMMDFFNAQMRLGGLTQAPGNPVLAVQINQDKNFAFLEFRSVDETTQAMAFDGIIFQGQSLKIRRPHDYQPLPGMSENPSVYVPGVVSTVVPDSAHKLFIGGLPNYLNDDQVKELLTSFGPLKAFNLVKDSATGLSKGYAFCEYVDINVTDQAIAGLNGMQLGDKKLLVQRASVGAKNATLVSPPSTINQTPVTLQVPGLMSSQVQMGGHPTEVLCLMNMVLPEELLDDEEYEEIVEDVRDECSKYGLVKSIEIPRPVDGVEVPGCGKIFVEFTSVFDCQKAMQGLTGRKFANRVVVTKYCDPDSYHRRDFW
T2 sequence (P51570 whole entry): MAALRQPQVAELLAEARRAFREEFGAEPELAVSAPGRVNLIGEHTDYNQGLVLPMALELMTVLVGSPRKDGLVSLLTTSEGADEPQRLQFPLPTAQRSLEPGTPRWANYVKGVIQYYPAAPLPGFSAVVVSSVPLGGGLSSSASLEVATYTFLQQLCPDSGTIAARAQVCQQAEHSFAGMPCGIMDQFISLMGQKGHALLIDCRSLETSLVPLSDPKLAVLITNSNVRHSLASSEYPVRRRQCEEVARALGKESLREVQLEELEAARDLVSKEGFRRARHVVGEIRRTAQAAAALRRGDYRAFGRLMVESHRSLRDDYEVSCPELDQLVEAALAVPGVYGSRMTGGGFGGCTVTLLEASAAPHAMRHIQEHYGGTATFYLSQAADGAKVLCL
T4 sequence (Q9UPU5 whole entry): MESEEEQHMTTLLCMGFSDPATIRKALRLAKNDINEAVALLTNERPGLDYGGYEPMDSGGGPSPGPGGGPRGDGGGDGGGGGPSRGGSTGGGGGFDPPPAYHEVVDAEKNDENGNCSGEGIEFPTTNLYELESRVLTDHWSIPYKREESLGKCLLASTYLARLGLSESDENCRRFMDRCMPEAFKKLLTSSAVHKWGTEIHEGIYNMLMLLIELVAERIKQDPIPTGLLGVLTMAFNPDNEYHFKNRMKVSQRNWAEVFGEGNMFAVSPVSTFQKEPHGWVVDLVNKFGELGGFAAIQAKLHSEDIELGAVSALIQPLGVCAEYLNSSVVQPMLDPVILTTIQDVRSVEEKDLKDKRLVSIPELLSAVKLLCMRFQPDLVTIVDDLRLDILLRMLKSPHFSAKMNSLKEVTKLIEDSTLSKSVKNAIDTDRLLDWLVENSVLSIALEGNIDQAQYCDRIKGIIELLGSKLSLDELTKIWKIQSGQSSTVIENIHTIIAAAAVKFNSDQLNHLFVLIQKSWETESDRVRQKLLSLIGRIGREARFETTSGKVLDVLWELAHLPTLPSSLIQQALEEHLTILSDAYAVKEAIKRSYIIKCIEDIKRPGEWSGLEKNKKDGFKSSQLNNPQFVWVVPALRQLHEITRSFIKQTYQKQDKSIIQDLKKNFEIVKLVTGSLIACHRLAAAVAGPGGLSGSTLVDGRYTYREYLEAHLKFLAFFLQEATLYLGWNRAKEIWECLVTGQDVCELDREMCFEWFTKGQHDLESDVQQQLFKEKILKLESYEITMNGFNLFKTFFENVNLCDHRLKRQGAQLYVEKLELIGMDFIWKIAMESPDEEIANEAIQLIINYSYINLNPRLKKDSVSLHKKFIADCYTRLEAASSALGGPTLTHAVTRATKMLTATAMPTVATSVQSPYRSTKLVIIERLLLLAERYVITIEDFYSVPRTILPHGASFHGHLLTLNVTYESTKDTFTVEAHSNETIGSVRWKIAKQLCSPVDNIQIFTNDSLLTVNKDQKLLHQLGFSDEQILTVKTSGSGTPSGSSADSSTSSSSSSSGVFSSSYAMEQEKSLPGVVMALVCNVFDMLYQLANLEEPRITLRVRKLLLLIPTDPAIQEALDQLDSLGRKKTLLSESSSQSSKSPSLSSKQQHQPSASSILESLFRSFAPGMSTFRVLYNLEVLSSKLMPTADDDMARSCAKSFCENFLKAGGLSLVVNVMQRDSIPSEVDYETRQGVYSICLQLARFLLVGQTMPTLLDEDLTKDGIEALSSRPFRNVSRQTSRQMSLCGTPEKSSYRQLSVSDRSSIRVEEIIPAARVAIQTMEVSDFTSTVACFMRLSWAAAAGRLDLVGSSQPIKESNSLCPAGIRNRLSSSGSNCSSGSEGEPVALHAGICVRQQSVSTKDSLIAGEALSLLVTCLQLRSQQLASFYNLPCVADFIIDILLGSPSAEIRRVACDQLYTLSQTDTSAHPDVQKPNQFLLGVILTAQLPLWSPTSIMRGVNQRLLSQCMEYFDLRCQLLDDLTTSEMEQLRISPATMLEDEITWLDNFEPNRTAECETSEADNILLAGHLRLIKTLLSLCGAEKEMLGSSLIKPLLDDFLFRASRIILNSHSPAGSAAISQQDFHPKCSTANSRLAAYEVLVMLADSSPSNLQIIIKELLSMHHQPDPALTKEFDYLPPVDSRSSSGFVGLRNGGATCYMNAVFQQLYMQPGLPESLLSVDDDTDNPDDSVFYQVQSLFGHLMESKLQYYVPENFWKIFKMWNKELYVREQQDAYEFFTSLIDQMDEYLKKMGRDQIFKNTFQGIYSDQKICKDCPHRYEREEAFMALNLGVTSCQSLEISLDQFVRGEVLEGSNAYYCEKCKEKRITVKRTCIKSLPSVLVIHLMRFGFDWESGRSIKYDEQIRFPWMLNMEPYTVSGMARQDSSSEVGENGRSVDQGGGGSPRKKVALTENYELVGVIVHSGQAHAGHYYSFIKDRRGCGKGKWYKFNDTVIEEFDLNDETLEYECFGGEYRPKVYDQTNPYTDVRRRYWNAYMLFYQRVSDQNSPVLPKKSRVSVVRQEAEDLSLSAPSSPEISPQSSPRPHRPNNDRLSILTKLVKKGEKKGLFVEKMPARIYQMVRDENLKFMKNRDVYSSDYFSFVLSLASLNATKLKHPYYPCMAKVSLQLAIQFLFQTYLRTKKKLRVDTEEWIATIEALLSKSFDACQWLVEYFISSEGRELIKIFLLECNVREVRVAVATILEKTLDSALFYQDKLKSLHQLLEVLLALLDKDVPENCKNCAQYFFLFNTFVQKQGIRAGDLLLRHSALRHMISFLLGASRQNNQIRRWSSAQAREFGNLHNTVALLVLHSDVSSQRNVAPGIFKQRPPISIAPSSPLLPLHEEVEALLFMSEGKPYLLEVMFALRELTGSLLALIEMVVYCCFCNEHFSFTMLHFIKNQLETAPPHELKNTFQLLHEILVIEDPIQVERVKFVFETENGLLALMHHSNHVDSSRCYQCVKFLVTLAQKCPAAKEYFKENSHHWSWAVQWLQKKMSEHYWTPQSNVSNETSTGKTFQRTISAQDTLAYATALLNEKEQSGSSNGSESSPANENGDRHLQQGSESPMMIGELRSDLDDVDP

Structure (SMILES) | fold changes relative to vehicle control ([1]; protein ATP5D, HeLa) | fold changes relative to vehicle control [2, 10] | fold changes relative to vehicle control ([3]; HeLa, protein NIPSNAP1) | fold changes relative to vehicle control ([4]; protein USP24, HeLa) | fold changes relative to vehicle control ([5]; HeLa, captured protein ERCC2) | fold changes relative to vehicle control [6] | fold changes relative to vehicle control [7] | fold changes relative to vehicle control [8] | fold changes relative to vehicle control [9] | also measured
Nc1nc2c(c(=O)[nH]1)N(C=O)C(CNc1ccc(C(=O)N[C@@H](CCC(=O)O)C(=O)O)cc1)CN2 (some centres unmarked) [LEU, leucovorin] | 0.85 | 1.18 | 1.02 | 0.85 | 1.14 |  |  |  |  | 
Nc1nc2[nH]cc(CCc3ccc(C(=O)N[C@@H](CCC(=O)O)C(=O)O)cc3)c2c(=O)[nH]1 [PTX, pemetrexed] |  |  |  |  |  |  |  |  |  | fold changes relative to vehicle control [1]: 1.14; fold changes relative to vehicle control [2]: 1.27; fold changes relative to vehicle control [3]: 1.03; fold changes relative to vehicle control [4]: 0.89; fold changes relative to vehicle control [5]: 0.98
CCCCCCOc1ccc(Cc2cnc(N)nc2N)cc1 [compound 1] |  |  |  |  |  | 1.12 | 0.97 | 1.14 | 0.95 | 
CCCCCCOc1cccc(Cc2cnc(N)nc2N)c1 [compound 2] |  |  |  |  |  | 1.36 | 1.67 | 1.4 | 1.14 | 
Nc1nc2cccc(-c3ccccc3)c2n1Cc1ccc(Cl)c(Cl)c1 [compound 3] |  |  |  |  |  | 0.93 | 0.92 | 1.04 | 1.03 | 
NCCOCCOCC(=O)Nc1nc2ncc(CNc3ccc(C(=O)NC(CCC(=O)O)C(=O)O)cc3)nc2c(=O)[nH]1 (centres unmarked) [compound 6] | 1.17 | 1.12 | 1.04 | 1.01 | 0.98 |  |  |  |  | 
NCCCNc1ccc(C(=O)NC(CCC(=O)O)C(=O)O)cc1 (centres unmarked) [compound 7] | 1.2 | 1.2 | 1.03 | 0.84 | 1 |  |  |  |  | 
